Reference: patent publication US20150141381A1, “TETRACYCLINE COMPOUNDS HAVING TARGET THERAPEUTIC ACTIVITIES” (Paratek Pharmaceuticals, Inc., priority 2001, published 2015)
Where two headings read alike, the source gives them in different places.

Columns and labels:
E. coli mL308 225 = experiment: In Vitro Anti-Bacterial Activity Assay (MIC), gram negative; assay type: cell-based; conditions: Escherichia coli, ML308225, 18 h
S. aureus RN450 = experiment: In Vitro Anti-Bacterial Activity Assay (MIC), gram positive; assay type: cell-based; conditions: Staphylococcus aureus, RN450, 18 h
[1] = MIC class, Table 3 (Continued), read-out: Gram− activity
[2] = MIC class, Table 3 (Continued), read-out: Gram+ activity
[3] = MIC class, Table 3, read-out: Antibiotic Activity Gram −
[4] = MIC class, Table 3, read-out: Antibiotic Activity Gram +
[5] = gram negative bacteria, read-out: Antibiotic Activity Gram − (MIC)
[6] = gram positive bacteria, read-out: Antibiotic Activity Gram + (MIC)
[7] = read-out: Antibiotic Activity Gram −
[8] = read-out: Antibiotic Activity Gram +

| Compound | MIC (E. coli mL308 225; [3]) [µg/mL] | MIC (S. aureus RN450; [4]) [µg/mL] | MIC (E. coli mL308 225; [5]) [µg/mL] | MIC (S. aureus RN450; [6]) [µg/mL] | further results |
| --- | --- | --- | --- | --- | --- |
| CN(C)[C@@H]1C(O)=C(C(N)=O)C(=O)[C@@]2(O)C(O)=C3C(=O)c4c(O)ccc(Br)c4C[C@H]3C[C@@H]12 | – | – | – | – | MIC (E. coli mL308 225; [1]): < 4 µg/mL; MIC (S. aureus RN450; [2]): < 4 µg/mL |
| CC#Cc1ccc(O)c2c1C[C@H]1C[C@H]3[C@H](N(C)C)C(O)=C(C(N)=O)C(=O)[C@@]3(O)C(O)=C1C2=O | – | – | – | – | MIC (E. coli mL308 225; [1]): < 4 µg/mL; MIC (S. aureus RN450; [2]): < 4 µg/mL |
| CCC(CC)c1ccc(CCc2ccc(O)c3c2C[C@H]2C[C@H]4[C@H](N(C)C)C(O)=C(C(N)=O)C(=O)[C@@]4(O)C(O)=C2C3=O)cc1 | – | – | – | – | MIC (E. coli mL308 225; [1]): < 4 µg/mL; MIC (S. aureus RN450; [2]): < 4 µg/mL |
| CCOC(=O)COC1=C(C(N)=O)C(=O)[C@@]2(O)C(O)=C3C(=O)c4c(O)ccc(I)c4C[C@H]3C[C@H]2[C@@H]1N(C)C [OY] | > 4 | < 4 | – | – | – |
| CC(C)CNCc1ccc(O)c2c1C[C@H]1C[C@H]3C(N(C)C)C(O)=C(C(N)=O)C(=O)[C@@]3(O)C(O)=C1C2=O (some centres unmarked) [NF] | < 4 | < 4 | – | – | – |
| CN(C)c1cc(NC(=O)CNC(C)(C)C)c(O)c2c1C[C@H]1C[C@H]3[C@H](N(C)C)C(O)=C(C(N)=O)C(=O)[C@@]3(O)C(O)=C1C2=O [DZ] | < 4 | < 4 | – | – | – |
| CN(C)[C@@H]1C(O)=C(C(N)=O)C(=O)[C@@]2(O)C(O)=C3C(=O)c4c(O)ccc(C(=O)CN5CCCCC5)c4C[C@H]3C[C@@H]12 | – | – | < 4 | < 4 | – |
| CN(C)[C@@H]1C(O)=C(C(N)=O)C(=O)[C@@]2(O)C(O)=C3C(=O)c4c(O)ccc(CNCc5ccc[nH]5)c4C[C@H]3C[C@@H]12 [KH] | < 4 | < 4 | – | – | – |
| C=C(Cl)c1ccc(O)c2c1C[C@H]1C[C@H]3[C@H](N(C)C)C(O)=C(C(N)=O)C(=O)[C@@]3(O)C(O)=C1C2=O [AW] | < 4 | < 4 | – | – | – |
| CN(C)c1cc(CCC2(O)CCCC2)c(O)c2c1C[C@H]1C[C@H]3[C@H](N(C)C)C(O)=C(C(N)=O)C(=O)[C@@]3(O)C(O)=C1C2=O | – | – | > 4 | > 4 | – |
| CO/N=C(\C)c1ccc(O)c2c1C[C@H]1C[C@H]3[C@H](N(C)C)C(O)=C(C(N)=O)C(=O)[C@@]3(O)C(O)=C1C2=O [EU] | < 4 | < 4 | – | – | – |
| Cc1ccc(/C=C/c2ccc(O)c3c2C[C@H]2C[C@H]4[C@H](N(C)C)C(O)=C(C(N)=O)C(=O)[C@@]4(O)C(O)=C2C3=O)cc1 [drawing 3339] | – | – | – | – | MIC (E. coli mL308 225; [1]): < 4 µg/mL; MIC (S. aureus RN450; [2]): < 4 µg/mL |
| CN(C)C(=O)/C=C/c1ccc(O)c2c1C[C@H]1C[C@H]3[C@H](N(C)C)C(O)=C(C(N)=O)C(=O)[C@@]3(O)C(O)=C1C2=O [AQ] | < 4 | < 4 | – | – | – |
| CN(C)[C@@H]1C(O)=C(C(N)=O)C(=O)[C@@]2(O)C(O)=C3C(=O)c4c(O)ccc(CCc5ccccn5)c4C[C@H]3C[C@@H]12 [BY] | > 4 | < 4 | – | – | – |
| CN(C)[C@@H]1C(O)=C(C(N)=O)C(=O)[C@@]2(O)C(O)=C3C(=O)c4c(O)ccc(CN5CCCCC5)c4C[C@H]3C[C@@H]12 [KJ] | < 4 | < 4 | – | – | – |
| CN(C)c1ccc(-c2cc(C#CC3=CCCCC3)c(O)c3c2C[C@H]2C[C@H]4[C@H](N(C)C)C(O)=C(C(N)=O)C(=O)[C@@]4(O)C(O)=C2C3=O)cc1 [HR] | > 4 | > 4 | – | – | – |
| NC(=O)C1=C(O)C[C@@H]2C[C@@H]3Cc4ccc(CN5CCCCC5)c(O)c4C(=O)C3=C(O)[C@]2(O)C1=O | – | – | > 4 | > 4 | – |
| CCOP(=O)(OCC)C(Nc1cc(N(C)C)c2c(c1O)C(=O)C1=C(O)[C@]3(O)C(=O)C(C(N)=O)=C(O)[C@@H](N(C)C)[C@@H]3C[C@@H]1C2)c1ccccc1 (some centres unmarked) [AA] | – | – | – | – | MIC (E. coli mL308 225; [7]): > 4 µg/mL; MIC (S. aureus RN450; [8]): > 4 µg/mL |
| CN(C)c1cc(C#CC2(O)CCCCC2)c(O)c2c1C[C@H]1C[C@H]3[C@H](N(C)C)C(O)=C(C(N)=O)C(=O)[C@@]3(O)C(O)=C1C2=O [AN] | > 4 | > 4 | – | – | – |
| CN(C)[C@H]1C(O)=C(C(N)=O)C(=O)[C@@]2(O)C(O)=C3C(=O)c4c(O)ccc(-c5cccc(N)c5)c4C[C@H]3C[C@@H]12 [AM] | < 4 | < 4 | – | – | – |

| Compound | MIC (E. coli mL308 225; [3]) [µg/mL] | MIC (S. aureus RN450; [4]) [µg/mL] | MIC (E. coli mL308 225; [5]) [µg/mL] | MIC (S. aureus RN450; [6]) [µg/mL] | further results |
| --- | --- | --- | --- | --- | --- |
| CSCc1cc(I)c2c(c1O)C(=O)C1=C(O)[C@]3(O)C(=O)C(C(N)=O)=C(O)[C@@H](N(C)C)[C@@H]3C[C@@H]1C2 | – | – | < 4 | < 4 | – |
| CN[C@@]12C(=O)C(C(N)=O)=C(O)[C@@H](N(C)C)[C@@H]1[C@@H](OC)[C@H]1C(=C2O)C(=O)c2c(O)cccc2[C@@H]1C | – | – | > 4 | > 4 | – |
| C[C@H]1c2ccc(-c3ccc(C=O)cc3)c(O)c2C(=O)C2=C(O)[C@]3(O)C(=O)C(C(N)=O)=C(O)[C@@H](N(C)C)[C@@H]3[C@@H](O)[C@@H]21 | – | – | < 4 | < 4 | – |
| CN(C)[C@@H]1C(O)=C(C(N)=O)C(=O)[C@@]2(O)C(O)=C3C(=O)c4c(O)ccc(/C=C(\Cl)CO)c4C[C@H]3C[C@@H]12 | – | – | – | – | MIC (E. coli mL308 225; [1]): > 4 µg/mL; MIC (S. aureus RN450; [2]): < 4 µg/mL |
| CC(=O)Cc1cc(I)c2c(c1O)C(=O)C1=C(O)[C@]3(O)C(=O)C(C(N)=O)=C(O)[C@@H](N(C)C)[C@@H]3C[C@@H]1C2 | – | – | > 4 | > 4 | – |
| COc1ccc(-c2ccc(O)c3c2C[C@H]2C[C@H]4[C@H](N(C)C)C(O)=C(C(N)=O)C(=O)[C@@]4(O)C(O)=C2C3=O)cc1CN(C)C [IT] | < 4 | < 4 | – | – | – |
| CN(C)[C@@H]1C(O)=C(C(N)=O)C(=O)[C@@]2(O)C(O)=C3C(=O)c4c(O)ccc(-c5ccc(CNCCc6ccc(Cl)cc6)cc5)c4C[C@H]3C[C@@H]12 | – | – | < 4 | < 4 | – |
| CN(C)c1cc(C#CC(=O)O)c(O)c2c1C[C@H]1C[C@H]3[C@H](N(C)C)C(O)=C(C(N)=O)C(=O)[C@@]3(O)C(O)=C1C2=O | – | – | > 4 | > 4 | – |
| CN(C)c1cc(NCc2ccccc2C[C@H]2O[C@@H](CO)[C@@H](O)[C@@H](O)[C@H]2O)c(O)c2c1C[C@H]1C[C@H]3[C@H](N(C)C)C(O)=C(C(N)=O)C(=O)[C@@]3(O)C(O)=C1C2=O | – | – | > 4 | > 4 | – |
| COc1ccc(OC(=O)Nc2ccc(-c3ccc(O)c4c3C[C@H]3C[C@H]5[C@@H](N(C)C)C(O)=C(C(N)=O)C(=O)[C@@]5(O)C(O)=C3C4=O)cc2)cc1 [GC] | – | – | – | – | MIC (E. coli mL308 225; [7]): > 4 µg/mL; MIC (S. aureus RN450; [8]): > 4 µg/mL |
| CN(C)[C@@H]1C(O)=C(C(N)=O)C(=O)[C@@]2(O)C(O)=C3C(=O)c4c(O)c(CN5CCCCC5)cc(-c5ccccn5)c4C[C@H]3C[C@@H]12 | – | – | > 4 | < 4 | – |
| CN(C)[C@@H]1C(O)=C(C(N)=O)C(=O)[C@@]2(O)C(O)=C3C(=O)c4c(O)cccc4C[C@H]3C[C@@H]12 [E] | < 4 | < 4 | – | – | – |
| CC(C)c1ccc(CNc2cc(N(C)C)c3c(c2O)C(=O)C2=C(O)[C@]4(O)C(=O)C(C(N)=O)=C(O)[C@@H](N(C)C)[C@@H]4C[C@@H]2C3)cc1 [NN] | > 4 | < 4 | – | – | – |
| CN(C)[C@@H]1C(O)=C(C(N)=O)C(=O)[C@@]2(O)C(O)=C3C(=O)c4c(O)ccc(-c5cc(F)cc(F)c5)c4C[C@H]3C[C@@H]12 | – | – | < 4 | < 4 | – |
| CN(C)c1cc(CNC(=O)Oc2ccc(Br)cc2)c(O)c2c1C[C@H]1C[C@H]3[C@H](N(C)C)C(O)=C(C(N)=O)C(=O)[C@@]3(O)C(O)=C1C2=O [FH] | – | – | – | – | MIC (E. coli mL308 225; [7]): > 4 µg/mL; MIC (S. aureus RN450; [8]): < 4 µg/mL |
| COc1cc(C/C=C\c2ccc(O)c3c2C[C@H]2C[C@H]4[C@H](N(C)C)C(O)=C(C(N)=O)C(=O)[C@@]4(O)C(O)=C2C3=O)ccc1O [BW] | > 4 | < 4 | – | – | – |
| CCCCN(c1ccc2c(c1O)C(=O)C1=C(O)[C@]3(O)C(=O)C(C(N)=O)=C(O)[C@@H](N(C)C)[C@@H]3[C@@H](O)[C@@H]1[C@H]2C)C1CCN(C)CC1 | – | – | > 4 | < 4 | – |
| CN(C)C(=O)c1cccc(-c2ccc(O)c3c2C[C@H]2C[C@H]4[C@H](N(C)C)C(O)=C(C(N)=O)C(=O)[C@@]4(O)C(O)=C2C3=O)c1 [AD] | > 4 | < 4 | – | – | – |
| CN(C)c1cc(-c2cccc(N)c2)c(O)c2c1C[C@H]1C[C@H]3[C@H](N(C)C)C(O)=C(C(N)=O)C(=O)[C@@]3(O)C(O)=C1C2=O [AH] | > 4 | < 4 | – | – | – |
| C[C@H]1c2ccc(N3CCOCC3)c(O)c2C(=O)C2=C(O)[C@]3(O)C(=O)C(C(N)=O)=C(O)[C@@H](N(C)C)[C@@H]3[C@@H](O)[C@@H]21 | – | – | > 4 | > 4 | – |
